Source: US6906175B2, “Production of adenine nucleotide translocator (ANT), novel ANT ligands and screening assays therefor” (priority 1998, dated 2005)

Tests used:
Sf9/huANT3 mitochondria [1] = biological target: T1, Sf9/huANT3 mitochondria (Homo sapiens, UniProt P12236); experiment: Homologous competition of [32P]ATP binding to Sf9/huANT3 mitochondria; conditions: FIG. 8
T1 construct: expressed in transfected cells; host or cells: Spodoptera frugiperda Sf9 cells infected with recombinant baculovirus; isolated mitochondria
T1 sequence (P12236 1-298): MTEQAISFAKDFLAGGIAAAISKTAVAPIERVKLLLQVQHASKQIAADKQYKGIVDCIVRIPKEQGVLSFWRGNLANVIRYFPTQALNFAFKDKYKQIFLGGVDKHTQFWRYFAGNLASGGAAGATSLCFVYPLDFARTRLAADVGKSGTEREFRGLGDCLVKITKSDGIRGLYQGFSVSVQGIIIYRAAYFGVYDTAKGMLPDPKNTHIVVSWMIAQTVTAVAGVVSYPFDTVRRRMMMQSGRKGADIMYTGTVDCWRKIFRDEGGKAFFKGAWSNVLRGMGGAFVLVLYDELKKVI
Method: To estimate maximal binding and the extent of overexpression of the huANT3, 25 μg of membrane protein was incubated with varying amounts of [^32P]ATP (1-500 μM) in binding buffer (120 mM KCl, 10 mM Tris, 1 mM EDTA, pH 7.4) for 2 hr at room temperature. The membranes with bound ATP were sedimented by centrifugation at 5000 g for 5 min, and washed once with binding buffer. Membrane pellets were then mixed with 5 ml scintillation cocktail and counted.
(§1) Sf9 cells expressing huANT3 were grown in spinner flasks. The cells were harvested by centrifugation at 2,000 g for 5 min. The cell pellet was resuspended in MSB and subjected to 3 freeze-thaw cycles. Cell membranes and debris were removed by centrifugation at 600 g for 5 min; mitochondria were collected by centrifuging the supernatant at 20,000 g for 15 min. The mitochondrial pellets were suspended in MSB, and used for binding assays as described above. Homologous competition of [^32P]ATP binding was performed using 25 μg mitochondrial protein per assay.

[2] = 125I-compound 24 competition binding (Tube Assay), mitochondria from control non-infected T. ni cells; conditions: control (nontransformed) T. ni mitochondria, 1 μg protein/tube; FIG. 15
Method: Atractyloside analogs (Example 6; Table 1; see also Examples 7-9) were also used in pseudo-homologous competition binding assays using T. ni/huANT3 mitochondria or bovine mitochondria. Mitochondria from noninfected T. ni cells, or T. ni cells infected with a baculovirus expressing huANT3 (see Example 3) were prepared as follows: […] cells were prepared by a subcontractor (PharMingen, San Diego, Calif.) as portions of about 250 mg of cells per tube. […]
The mitochondrial preparations were divided into aliquots (typically, 50μl for T. ni mitochondria or 20 μl for bovine mitochondria) and then either used directly in assays or flash frozen and stored at −80° C. The total protein content in the mitochondrial preparations was determined using the enhanced protocol (30 minutes at 60° C.; see http://www.ruf.rice.edu/˜bioslabs/methods/protein/BCA.html) of the bicinchoninic acid (BCA) assay (available in kit form from Pierce, Rockford, Ill.). […]
Unbound ^125I-compound 24 was removed by aspiration. […] The resultant pellets were aspirated and the radioactivity (dpm) in each was determined by gamma counting.

His-tagged huANT3 = biological target: T2, His-tagged huANT3 (Homo sapiens, UniProt P12236); experiment: 125I-compound 24 competition binding to recombinant His-tagged huANT3 immobilized on Ni beads; parameters: made in house; host or cells: baculovirus-infected Trichoplusia ni cells; mitochondria solubilized and captured on Ni-agarose beads (Qiagen); conditions: His-tagged huANT3 on Ni-agarose beads, 1 hour at 4° C.; FIG. 19
T2 sequence (P12236 1-298): T1 sequence (P12236 1-298)
Method: Competitive binding assays were also performed using recombinant His-tagged huANT3 (see Example 3) immobilized on Ni beads (FIG. 19) instead of mitochondria. To prepare the bead-immobilized huANT3, mitochondria from T. ni cells infected with a baculovirus expressing huANT3 (see Example 3) were solubilized with 0.5% O-glucopyranoside in the presence of 0.5 nM ^125I-compound 24 Ni-agarose beads (Qiagen, Hilden, Germany), and various concentrations of ATR or BKA as unlabeled competitors. After 1 hour at 4° C., the beads were washed and radioactivity that remained associated with the beads was counted.

Sf9/huANT3 mitochondria [3] = biological target: T1, Sf9/huANT3 mitochondria; experiment: [125I]atractyloside competition binding to Sf9/huANT3 mitochondria; conditions: 0.5 nM [125I]atractyloside
Method: as §1
These findings are consistent with the presence of functional huANT3 in the mitochondrial preparations.
Atractyloside analogs (Example 6; Table 1; see also Examples 7-9) were used in pseudo-homologous competition binding assays using Sf9/huANT3 mitochondria. Mitochondria (see Example 12, 25 μg/tube) were incubated with 0.5 nM [^125I]atractyloside and varying concentrations of non-radiolabeled atractyloside or fluorescent atractyloside derivatives as described above (FIGS. 7-9).

C=C1[C@@H]2CCC3[C@@](CC[C@@H]4[C@H](C(=O)O)C[C@@H](O[C@@H]5O[C@H](CO)[C@@H](OS(=O)(=O)[O-])[C@H](OS(=O)(=O)[O-])[C@H]5OC(=O)CC(C)C)C[C@@]34C)(C2)[C@@H]1O.[K+].[K+] (stereo partly shown) [ATR, atractyloside]
displacement of ATP binding (Sf9/huANT3 mitochondria [1]): displaced by low concentrations of atractyloside
competitive inhibition of 125I-compound 24 binding (in words) [2]: only slight inhibition
competitive inhibition of 125I-compound 24 binding (in words) (His-tagged huANT3): effectively compete with compound 24
cpm [125I]Atractyloside bound in the presence of ATR derivative (Sf9/huANT3 mitochondria [3]; [ATR Derivative] 1.0 nM): 224 cpm
cpm [125I]Atractyloside bound in the presence of ATR derivative (Sf9/huANT3 mitochondria [3]; [ATR Derivative] 5.0 nM): 146 cpm
cpm [125I]Atractyloside bound in the presence of ATR derivative (Sf9/huANT3 mitochondria [3]; [ATR Derivative] 10 nM): 42 cpm
cpm [125I]Atractyloside bound in the presence of ATR derivative (Sf9/huANT3 mitochondria [3]; [ATR Derivative] 50 nM): 26 cpm
cpm [125I]Atractyloside bound in the presence of ATR derivative (Sf9/huANT3 mitochondria [3]; [ATR Derivative] 1,000 nM): 36 cpm
cpm [125I]Atractyloside bound in the presence of ATR derivative (Sf9/huANT3 mitochondria [3]; [ATR Derivative] 5,000 nM): 45 cpm
cpm [125I]Atractyloside bound in the presence of ATR derivative (Sf9/huANT3 mitochondria [3]; [ATR Derivative] 10,000 nM): 0 cpm
